Test results reported in patent publication US4260745A, “3-Halo cephalosporins” (Eli Lilly and Company, priority 1979, dated 1981).
Values after ≈ are worked out from the molar mass of the structure shown. Where a name gives a salt, the structure may show the parent alone. Read-outs that look alike come from different tables or passages of the source.

Tests used:
Bacillus subtilis = test: standard disc-plate method, zone of inhibition; format: cell-based; details: Table I, read-out: Zone of Inhibition (diameter in mm)
Description: (§1) The in vitro antimicrobial activity of the 3-halo cephalosporins is illustrated by the data in the following tables. Table I contains the antimicrobial activity for 7-[2-(2-thienyl)acetamido]-3-chloro-3-cephem-4-carboxylic acid obtained in the standard Disc-plate method. The numerical values are the diameter in millimeters of the zones of inhibition observed with the named organisms.
(§2) In Table IV below, the in vitro antimicrobial activity of 7-[2-(2-thienyl)acetamido]-3-bromo-3-cephem-4-carboxylic acid is presented for several illustrative microorganisms. The data presented were obtained in the standard disc-plate method with the numerical values recording the diameter in millimeters of the zones of inhibition observed with the named microorganisms.

Escherichia coli [1] = test: standard disc-plate method, zone of inhibition; format: cell-based; details: Table I, read-out: Zone of Inhibition (diameter in mm)
Description: as §1, §2

Klebsiella pneumoniae [2] = test: standard disc-plate method, zone of inhibition; format: cell-based; details: Table I, read-out: Zone of Inhibition (diameter in mm)
Description: as §1, §2

Mycobacterium avium = test: standard disc-plate method, zone of inhibition; format: cell-based; details: 1.0 mg/ml, Table I, read-out: Zone of Inhibition (diameter in mm)
Description: as §1, §2

Proteus vulgaris = test: standard disc-plate method, zone of inhibition; format: cell-based; details: 1.0 mg/ml, Table I, read-out: Zone of Inhibition (diameter in mm)
Description: as §1, §2

Sarcina lutea = test: standard disc-plate method, zone of inhibition; format: cell-based; details: Micrococcus luteus, Table I, read-out: Zone of Inhibition (diameter in mm)
Description: as §1, §2

Staphylococcus aureus = test: standard disc-plate method, zone of inhibition; format: cell-based; details: Table I, read-out: Zone of Inhibition (diameter in mm)
Description: as §1, §2

[3] = system: Pseudomonas solanacearcum; test: standard disc-plate method, zone of inhibition; format: cell-based; details: Pseudomonas, Table I, read-out: Zone of Inhibition (diameter in mm)
Description: as §1, §2

Salmonella gallinarum = test: standard disc-plate method, zone of inhibition; format: cell-based; details: Salmonella enterica, GALLINARUM, Table I, read-out: Zone of Inhibition (diameter in mm)
Description: as §1, §2

[4] = system: Penicillin Resistant Staphylococcus; test: Gradient Plate technique, MIC; format: cell-based; details: read-out: Minimum Inhibitory Concentration
Description: The following Table II lists the minimum inhibitory concentration (MIC) for 7-[2-(2-thienyl)acetamido]-3-chloro-3-cephem-4-carboxylic acid against penicillin resistant Staphylococcus both in the presence of and absence of serum. The MIC values were obtained by the Gradient Plate technique carried out essentially as described by Bryson and Szybalski, Science, 116, 45 (1952). […]

[5] = system: Methicillin resistant Staphylococcus; test: Gradient Plate technique, MIC; format: cell-based; details: Clinical Isolate X400 (methicillin resistant)
Aerobacter aerogenes = test: Gradient Plate technique, MIC; format: cell-based; details: Klebsiella aerogenes, read-out: Minimum Inhibitory Concentration
Description: (§3) The following Table II lists the minimum inhibitory concentration (MIC) for 7-[2-(2-thienyl)acetamido]-3-chloro-3-cephem-4-carboxylic acid against penicillin resistant Staphylococcus both in the presence of and absence of serum. The MIC values were obtained by the Gradient Plate technique carried out essentially as described by Bryson and Szybalski, Science, 116, 45 (1952).
(§4) In Table III, below, the MIC values for the test compound of Tables I and II against representative gram-negative organisms is presented. The data were obtained by the Gradient Plate technique.
(§5) The minimum inhibitory concentrations for 7-[2-(2-thienyl)acetamido]-3-bromo-3-cephem-4-carboxylic acid against representative gram-negative bacteria is presented in Table VI. The data were obtained by the Gradient Plate Method.
(§6) Tables VII and VIII list the minimum inhibitory concentrations of the test compound effective against representative penicillin resistant Staphylococcus strains, while […] the MIC values obtained against representative gram-negative microorganisms. The data were obtained by the Gradient Plate method.

Escherichia coli [6] = test: Gradient Plate technique, MIC; format: cell-based; details: read-out: Minimum Inhibitory Concentration
Description: as §3, §4, §5, §6

Klebsiella pneumoniae [7] = test: Gradient Plate technique, MIC; format: cell-based; details: read-out: Minimum Inhibitory Concentration
Description: as §3, §4, §5, §6

Pseudomonas aeruginosa = test: Gradient Plate technique, MIC; format: cell-based; details: read-out: Minimum Inhibitory Concentration
Description: as §3, §4, §5, §6

Salmonella heidelberg = test: Gradient Plate technique, MIC; format: cell-based; details: Salmonella enterica, read-out: Minimum Inhibitory Concentration
Description: as §3, §4, §5, §6

Serratia marcescens = test: Gradient Plate technique, MIC; format: cell-based; details: read-out: Minimum Inhibitory Concentration
Description: as §3, §4, §5, §6

Shigella sp. = test: Gradient Plate technique, MIC; format: cell-based; details: read-out: Minimum Inhibitory Concentration
Description: as §3, §4, §5, §6

Escherichia coli [8] = test: standard disc-plate method, zone of inhibition; format: cell-based; design: key: H: hazy zone of inhibition; Tr: trace zone of inhibition; details: 0.01 mg/ml; Table I
Description: as §1, §2

Electrometric titration = format: physicochemical
[9] = 66% aqueous dmf, only or first pKa, read-out: pKa

O=C(Cc1cccs1)NC1C(=O)N2C(C(=O)O)=C(Cl)CS[C@H]12 (stereo partly shown) [7-[2-(2-Thienyl)acetamido]-3-chloro-3-cephem-4-carboxylic acid]
zone of inhibition at 10 µg/mL (Bacillus subtilis; 0.01 mg/ml): 24 mm | zone of inhibition at 100 µg/mL (Bacillus subtilis; 0.1 mg/ml): 40 mm | zone of inhibition at 1000 µg/mL (Bacillus subtilis; 1.0 mg/ml): 48 mm | zone of inhibition at 100 µg/mL (Escherichia coli [1]; 0.1 mg/ml): 19 mm | zone of inhibition at 1000 µg/mL (Escherichia coli [1]; 1.0 mg/ml): 24 mm | zone of inhibition at 10 µg/mL (Klebsiella pneumoniae [2]; 0.01 mg/ml): 13 mm | zone of inhibition at 100 µg/mL (Klebsiella pneumoniae [2]; 0.1 mg/ml): 27 mm | zone of inhibition at 1000 µg/mL (Klebsiella pneumoniae [2]; 1.0 mg/ml): 36 mm | zone of inhibition at 1000 µg/mL (Mycobacterium avium): 14 mm | zone of inhibition at 1000 µg/mL (Proteus vulgaris): 17 mm | zone of inhibition at 10 µg/mL (Sarcina lutea; 0.01 mg/ml): 21 mm | zone of inhibition at 100 µg/mL (Sarcina lutea; 0.1 mg/ml): 28 mm | zone of inhibition at 1000 µg/mL (Sarcina lutea; 1.0 mg/ml): 37 mm | zone of inhibition at 10 µg/mL (Staphylococcus aureus; 0.01 mg/ml): 20 mm | zone of inhibition at 100 µg/mL (Staphylococcus aureus; 0.1 mg/ml): 29 mm | zone of inhibition at 1000 µg/mL (Staphylococcus aureus; 1.0 mg/ml): 31 mm | zone of inhibition at 100 µg/mL ([3]; 0.1 mg/ml): 21 mm | zone of inhibition at 1000 µg/mL ([3]; 1.0 mg/ml): 28 mm | zone of inhibition at 100 µg/mL (Salmonella gallinarum; 0.1 mg/ml): 22 mm | zone of inhibition at 1000 µg/mL (Salmonella gallinarum; 1.0 mg/ml): 32 mm | MIC ([4]; Clinical Isolate V 32, No Serum): 8.4 µg/mL (≈ 23.4 µM) | MIC ([4]; Clinical Isolate V 32, Serum): > 20 µg/mL | MIC ([4]; Clinical Isolate V 41, No Serum): 5 µg/mL (≈ 13.9 µM) | MIC ([4]; Clinical Isolate V 41, Serum): 7 µg/mL (≈ 19.5 µM) | MIC ([4]; Clinical Isolate V 84, No Serum): 0.8 µg/mL (≈ 2.23 µM) | MIC ([4]; Clinical Isolate V 84, Serum): 1 µg/mL (≈ 2.79 µM) | MIC ([4]; Clinical Isolate X 1.1, No Serum): 0.2 µg/mL (≈ 0.557 µM) | MIC ([4]; Clinical Isolate X 1.1, Serum): < 0.1 µg/mL | Minimum Inhibitory Concentration ([5]; Serum): > 20 µg/mL | MIC ([5]; Staphylococcus, No Serum, read-out: Minimum Inhibitory Concentration): > 20 µg/mL | MIC (Aerobacter aerogenes): 0.8 µg/mL (≈ 2.23 µM) | MIC (Escherichia coli [6]): 18.5 µg/mL (≈ 51.6 µM) | MIC (Klebsiella pneumoniae [7]): 0.6 µg/mL (≈ 1.67 µM) | MIC (Pseudomonas aeruginosa): > 200 µg/mL | MIC (Salmonella heidelberg): 0.8 µg/mL (≈ 2.23 µM) | MIC (Serratia marcescens): > 200 µg/mL | MIC (Shigella sp.): 25 µg/mL (≈ 69.7 µM) | Zone of Inhibition (diameter in mm) (Escherichia coli [8]): Tr

NC1C(=O)N2C(C(=O)OC(c3ccccc3)c3ccccc3)=C(O)CS[C@H]12 (stereo partly shown) [diphenylmethyl 7-amino-3-hydroxy-3-cephem-4-carboxylate hydrochloride]
pKa (Electrometric titration; 60% aqueous dmf, 60% aq. DMF, first group, read-out: titratable groups): 4.5 | pKa (Electrometric titration; 60% aqueous dmf, 60% aq. DMF, second group, read-out: titratable groups): 6.5

CC(=O)NC1C(=O)N2C(C(=O)OCc3ccc([N+](=O)[O-])cc3)=C(O)CS[C@H]12 (stereo partly shown) [Example 13, p-Nitrobenzyl 7-acetamido-3-hydroxy-3-cephem-4-carboxylate]
pKa (Electrometric titration; [9]): 5.9

NC1C(=O)N2C(C(=O)OCc3ccc([N+](=O)[O-])cc3)=C(O)CS[C@H]12 (stereo partly shown) [Example 5, p-Nitrobenzyl 7-amino-3-hydroxy-3-cephem-4-carboxylate hydrochloride]
pKa (Electrometric titration; 66% aqueous dmf, 66% DMF, second pKa, read-out: pKa): 6.3 | pKa (Electrometric titration; [9]): 4
